Legend:
[1] = target: Receptor-type tyrosine-protein kinase FLT3 (Homo sapiens) (UniProt P36888); assay: Selectivity interaction (SelectScreen Kinase Profiling (Thermo Fisher Scientific)) EUB0001558a FLT3; settings: at 1 µM
[2] = target: T1, Interleukin-1 receptor-associated kinase 3 (Homo sapiens) (UniProt Q9Y616); assay: Selectivity interaction (KinomeScan (DiscoverX)) EUB0000229b IRAK3; settings: at 10 µM
T1 sequence (whole entry): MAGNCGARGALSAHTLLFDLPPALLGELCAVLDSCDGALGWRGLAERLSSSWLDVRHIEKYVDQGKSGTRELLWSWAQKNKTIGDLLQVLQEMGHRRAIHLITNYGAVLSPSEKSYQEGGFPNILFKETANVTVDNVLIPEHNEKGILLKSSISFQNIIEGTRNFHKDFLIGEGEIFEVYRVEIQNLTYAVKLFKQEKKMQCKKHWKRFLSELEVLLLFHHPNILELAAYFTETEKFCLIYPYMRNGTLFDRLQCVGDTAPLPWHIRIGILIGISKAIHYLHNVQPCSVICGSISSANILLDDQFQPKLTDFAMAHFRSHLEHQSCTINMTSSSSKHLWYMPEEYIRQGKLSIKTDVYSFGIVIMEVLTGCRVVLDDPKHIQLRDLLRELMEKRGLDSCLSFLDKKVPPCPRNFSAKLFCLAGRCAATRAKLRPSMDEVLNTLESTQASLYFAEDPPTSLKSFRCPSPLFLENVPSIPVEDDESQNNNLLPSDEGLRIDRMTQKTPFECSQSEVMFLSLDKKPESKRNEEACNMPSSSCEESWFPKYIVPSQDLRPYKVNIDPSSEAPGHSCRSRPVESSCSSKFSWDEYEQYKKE

[3] = target: Casein kinase I isoform delta (Homo sapiens, UniProt P48730); assay: Selectivity interaction (KinomeScan (DiscoverX)) EUB0000655a CSNK1D; settings: at 10 µM
Casein kinase I isoform delta, sequence (P48730 whole entry, looked up, canonical isoform): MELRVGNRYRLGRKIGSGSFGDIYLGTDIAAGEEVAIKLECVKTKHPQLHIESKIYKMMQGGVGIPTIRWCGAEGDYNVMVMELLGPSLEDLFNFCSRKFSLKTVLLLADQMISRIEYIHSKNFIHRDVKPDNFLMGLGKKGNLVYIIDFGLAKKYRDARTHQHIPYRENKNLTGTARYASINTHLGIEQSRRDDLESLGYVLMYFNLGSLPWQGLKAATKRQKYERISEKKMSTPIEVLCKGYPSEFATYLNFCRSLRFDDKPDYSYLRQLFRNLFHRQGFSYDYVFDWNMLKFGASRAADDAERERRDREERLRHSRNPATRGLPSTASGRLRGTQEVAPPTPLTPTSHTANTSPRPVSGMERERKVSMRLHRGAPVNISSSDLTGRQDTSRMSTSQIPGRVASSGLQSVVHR

[4] = target: T2, cAMP-dependent protein kinase catalytic subunit PRKX (Homo sapiens) (UniProt P51817); assay: Selectivity interaction (ProQinase) EUB0000171b PRKX
T2 sequence (whole entry): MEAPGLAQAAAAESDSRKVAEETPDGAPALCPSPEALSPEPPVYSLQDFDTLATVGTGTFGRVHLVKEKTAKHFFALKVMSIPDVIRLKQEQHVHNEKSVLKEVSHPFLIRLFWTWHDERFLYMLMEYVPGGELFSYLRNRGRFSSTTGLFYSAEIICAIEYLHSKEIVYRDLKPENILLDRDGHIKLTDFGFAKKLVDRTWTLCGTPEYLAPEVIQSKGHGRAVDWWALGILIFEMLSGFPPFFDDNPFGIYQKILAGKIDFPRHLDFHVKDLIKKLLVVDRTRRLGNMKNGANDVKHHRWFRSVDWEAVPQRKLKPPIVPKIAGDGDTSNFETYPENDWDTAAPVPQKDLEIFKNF

[5] = target: Serine/threonine-protein kinase Chk2 (Homo sapiens) (UniProt O96017); assay: Selectivity interaction (KinomeScan (DiscoverX)) EUB0001079a CHEK2; settings: at 1 µM
Serine/threonine-protein kinase Chk2 (Homo sapiens), sequence (O96017 whole entry): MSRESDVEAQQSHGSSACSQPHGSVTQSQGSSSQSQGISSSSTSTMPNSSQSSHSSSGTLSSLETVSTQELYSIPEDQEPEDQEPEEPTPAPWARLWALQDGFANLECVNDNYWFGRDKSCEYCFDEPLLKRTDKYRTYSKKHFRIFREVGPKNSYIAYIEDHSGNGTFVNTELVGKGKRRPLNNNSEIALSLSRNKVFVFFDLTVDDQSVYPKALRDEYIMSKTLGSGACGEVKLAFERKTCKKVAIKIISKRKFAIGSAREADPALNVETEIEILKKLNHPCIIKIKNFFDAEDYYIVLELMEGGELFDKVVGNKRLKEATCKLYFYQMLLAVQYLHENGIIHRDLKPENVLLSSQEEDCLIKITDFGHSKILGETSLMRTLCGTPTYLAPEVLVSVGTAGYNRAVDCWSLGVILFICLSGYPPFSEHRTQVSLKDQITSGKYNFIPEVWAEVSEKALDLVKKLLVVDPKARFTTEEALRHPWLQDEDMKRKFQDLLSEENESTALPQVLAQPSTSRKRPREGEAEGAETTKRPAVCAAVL

[6] = target: T3, Serine/threonine-protein kinase LATS1 (Homo sapiens) (UniProt O95835); assay: Selectivity interaction (ActivX KiNativ screen (kinase selectivity in THP-1 cell lysates)) EUB0000639a LATS1; format: subcellular; settings: lysate
T3 sequence (whole entry): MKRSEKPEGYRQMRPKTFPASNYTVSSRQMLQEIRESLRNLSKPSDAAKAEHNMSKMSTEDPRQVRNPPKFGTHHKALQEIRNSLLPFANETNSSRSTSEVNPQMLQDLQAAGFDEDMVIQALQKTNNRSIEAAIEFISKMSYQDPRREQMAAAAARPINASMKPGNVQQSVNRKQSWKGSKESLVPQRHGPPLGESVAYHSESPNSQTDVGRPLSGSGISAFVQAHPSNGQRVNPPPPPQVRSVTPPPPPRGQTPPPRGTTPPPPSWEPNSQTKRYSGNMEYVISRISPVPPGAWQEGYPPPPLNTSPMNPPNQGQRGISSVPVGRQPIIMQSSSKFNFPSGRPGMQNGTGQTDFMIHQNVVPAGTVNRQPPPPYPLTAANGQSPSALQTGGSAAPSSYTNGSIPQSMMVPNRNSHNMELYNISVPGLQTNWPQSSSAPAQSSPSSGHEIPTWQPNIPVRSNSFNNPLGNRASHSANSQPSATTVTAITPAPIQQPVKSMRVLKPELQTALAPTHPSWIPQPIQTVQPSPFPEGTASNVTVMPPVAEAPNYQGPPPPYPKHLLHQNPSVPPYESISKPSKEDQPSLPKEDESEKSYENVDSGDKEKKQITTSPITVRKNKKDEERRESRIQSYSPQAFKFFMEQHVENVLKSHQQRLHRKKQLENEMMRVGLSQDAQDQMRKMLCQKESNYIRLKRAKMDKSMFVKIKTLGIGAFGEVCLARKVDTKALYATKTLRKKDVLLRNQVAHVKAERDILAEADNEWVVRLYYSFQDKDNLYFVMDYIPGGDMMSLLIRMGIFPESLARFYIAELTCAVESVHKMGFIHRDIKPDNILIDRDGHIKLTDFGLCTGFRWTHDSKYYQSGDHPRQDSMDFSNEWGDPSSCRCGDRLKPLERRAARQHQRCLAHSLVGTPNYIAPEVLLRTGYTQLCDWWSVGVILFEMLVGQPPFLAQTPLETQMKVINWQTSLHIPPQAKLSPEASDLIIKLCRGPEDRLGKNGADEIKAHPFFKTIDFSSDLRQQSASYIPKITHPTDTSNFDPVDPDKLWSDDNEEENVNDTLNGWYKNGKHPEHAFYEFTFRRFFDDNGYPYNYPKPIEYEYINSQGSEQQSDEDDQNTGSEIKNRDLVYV

[7] = target: Serine/threonine-protein kinase 10 (Homo sapiens) (UniProt O94804); assay: Selectivity interaction (ActivX KiNativ screen (kinase selectivity in THP-1 cell lysates)) EUB0000639a STK10; format: subcellular; settings: lysate, at 0.2 µM
Serine/threonine-protein kinase 10 (Homo sapiens), sequence (O94804 whole entry, looked up): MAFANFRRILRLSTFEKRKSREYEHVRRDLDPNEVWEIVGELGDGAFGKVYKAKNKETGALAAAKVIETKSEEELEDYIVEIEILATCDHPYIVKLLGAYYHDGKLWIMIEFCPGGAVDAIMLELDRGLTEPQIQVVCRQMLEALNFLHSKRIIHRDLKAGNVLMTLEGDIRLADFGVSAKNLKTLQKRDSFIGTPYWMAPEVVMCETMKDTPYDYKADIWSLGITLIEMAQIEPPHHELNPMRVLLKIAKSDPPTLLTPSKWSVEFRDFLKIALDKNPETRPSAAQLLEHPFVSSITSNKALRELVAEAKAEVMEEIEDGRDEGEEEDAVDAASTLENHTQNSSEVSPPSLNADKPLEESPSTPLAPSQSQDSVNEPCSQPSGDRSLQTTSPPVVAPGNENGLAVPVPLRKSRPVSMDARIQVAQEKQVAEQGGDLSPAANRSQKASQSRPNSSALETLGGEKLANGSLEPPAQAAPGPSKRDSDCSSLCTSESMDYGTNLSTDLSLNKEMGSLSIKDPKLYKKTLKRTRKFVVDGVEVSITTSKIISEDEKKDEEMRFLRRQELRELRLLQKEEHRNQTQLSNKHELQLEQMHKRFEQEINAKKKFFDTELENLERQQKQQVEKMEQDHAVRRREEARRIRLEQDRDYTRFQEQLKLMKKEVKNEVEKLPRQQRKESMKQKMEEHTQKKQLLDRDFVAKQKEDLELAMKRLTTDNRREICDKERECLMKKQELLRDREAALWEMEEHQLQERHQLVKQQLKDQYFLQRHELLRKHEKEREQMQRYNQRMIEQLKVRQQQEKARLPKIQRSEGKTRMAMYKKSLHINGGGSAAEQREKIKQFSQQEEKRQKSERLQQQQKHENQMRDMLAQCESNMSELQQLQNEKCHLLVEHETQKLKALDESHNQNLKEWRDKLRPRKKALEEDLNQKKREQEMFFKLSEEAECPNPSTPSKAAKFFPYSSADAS

[8] = target: Mitogen-activated protein kinase kinase kinase 4 (Homo sapiens) (UniProt Q9Y6R4); assay: Selectivity interaction (KinomeScan (DiscoverX)) EUB0000695a MAP3K4; settings: at 100 nM
Mitogen-activated protein kinase kinase kinase 4 (Homo sapiens), sequence (Q9Y6R4 whole entry): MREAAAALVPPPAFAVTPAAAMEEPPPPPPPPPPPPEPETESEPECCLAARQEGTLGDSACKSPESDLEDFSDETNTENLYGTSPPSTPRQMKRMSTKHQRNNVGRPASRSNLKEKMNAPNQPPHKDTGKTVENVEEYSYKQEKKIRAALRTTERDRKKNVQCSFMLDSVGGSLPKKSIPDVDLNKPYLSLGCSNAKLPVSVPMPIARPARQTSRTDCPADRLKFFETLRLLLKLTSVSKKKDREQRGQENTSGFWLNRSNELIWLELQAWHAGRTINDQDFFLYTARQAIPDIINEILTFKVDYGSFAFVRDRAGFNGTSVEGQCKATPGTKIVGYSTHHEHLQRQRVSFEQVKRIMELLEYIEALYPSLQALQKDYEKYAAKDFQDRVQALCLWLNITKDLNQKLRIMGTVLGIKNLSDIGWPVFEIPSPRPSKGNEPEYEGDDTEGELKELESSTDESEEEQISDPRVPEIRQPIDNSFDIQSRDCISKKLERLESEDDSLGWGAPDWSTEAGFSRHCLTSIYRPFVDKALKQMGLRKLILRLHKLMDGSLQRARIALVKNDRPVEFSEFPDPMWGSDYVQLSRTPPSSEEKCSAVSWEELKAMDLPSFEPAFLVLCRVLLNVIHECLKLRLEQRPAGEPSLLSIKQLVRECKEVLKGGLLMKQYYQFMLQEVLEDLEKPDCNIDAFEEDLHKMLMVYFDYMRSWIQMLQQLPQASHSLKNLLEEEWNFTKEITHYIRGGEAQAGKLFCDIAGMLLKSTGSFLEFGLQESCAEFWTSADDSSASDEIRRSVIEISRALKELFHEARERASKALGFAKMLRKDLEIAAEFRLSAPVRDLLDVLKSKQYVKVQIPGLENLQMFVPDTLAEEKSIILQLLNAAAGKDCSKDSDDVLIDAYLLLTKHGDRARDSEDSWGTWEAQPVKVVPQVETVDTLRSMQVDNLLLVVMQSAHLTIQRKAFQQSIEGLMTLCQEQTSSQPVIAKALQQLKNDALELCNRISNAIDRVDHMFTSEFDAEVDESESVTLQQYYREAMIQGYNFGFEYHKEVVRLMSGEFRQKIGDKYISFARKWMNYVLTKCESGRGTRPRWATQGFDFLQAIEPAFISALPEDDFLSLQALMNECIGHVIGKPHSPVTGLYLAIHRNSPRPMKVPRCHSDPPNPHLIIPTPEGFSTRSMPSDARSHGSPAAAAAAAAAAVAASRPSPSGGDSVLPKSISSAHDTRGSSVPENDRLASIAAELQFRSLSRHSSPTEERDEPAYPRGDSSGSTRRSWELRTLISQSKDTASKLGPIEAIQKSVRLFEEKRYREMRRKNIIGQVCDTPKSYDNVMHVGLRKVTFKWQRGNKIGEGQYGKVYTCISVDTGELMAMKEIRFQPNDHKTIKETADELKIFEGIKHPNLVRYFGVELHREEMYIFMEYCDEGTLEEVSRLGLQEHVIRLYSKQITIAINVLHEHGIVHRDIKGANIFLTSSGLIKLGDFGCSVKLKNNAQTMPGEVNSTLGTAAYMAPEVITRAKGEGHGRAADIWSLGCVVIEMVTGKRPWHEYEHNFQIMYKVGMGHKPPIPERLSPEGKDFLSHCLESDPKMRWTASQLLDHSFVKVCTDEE

[9] = target: Non-receptor tyrosine-protein kinase TYK2 (Homo sapiens, UniProt P29597); assay: Selectivity interaction (KinomeScan (DiscoverX)) EUB0000045b TYK2; settings: at 10 µM
Non-receptor tyrosine-protein kinase TYK2, sequence (P29597 whole entry): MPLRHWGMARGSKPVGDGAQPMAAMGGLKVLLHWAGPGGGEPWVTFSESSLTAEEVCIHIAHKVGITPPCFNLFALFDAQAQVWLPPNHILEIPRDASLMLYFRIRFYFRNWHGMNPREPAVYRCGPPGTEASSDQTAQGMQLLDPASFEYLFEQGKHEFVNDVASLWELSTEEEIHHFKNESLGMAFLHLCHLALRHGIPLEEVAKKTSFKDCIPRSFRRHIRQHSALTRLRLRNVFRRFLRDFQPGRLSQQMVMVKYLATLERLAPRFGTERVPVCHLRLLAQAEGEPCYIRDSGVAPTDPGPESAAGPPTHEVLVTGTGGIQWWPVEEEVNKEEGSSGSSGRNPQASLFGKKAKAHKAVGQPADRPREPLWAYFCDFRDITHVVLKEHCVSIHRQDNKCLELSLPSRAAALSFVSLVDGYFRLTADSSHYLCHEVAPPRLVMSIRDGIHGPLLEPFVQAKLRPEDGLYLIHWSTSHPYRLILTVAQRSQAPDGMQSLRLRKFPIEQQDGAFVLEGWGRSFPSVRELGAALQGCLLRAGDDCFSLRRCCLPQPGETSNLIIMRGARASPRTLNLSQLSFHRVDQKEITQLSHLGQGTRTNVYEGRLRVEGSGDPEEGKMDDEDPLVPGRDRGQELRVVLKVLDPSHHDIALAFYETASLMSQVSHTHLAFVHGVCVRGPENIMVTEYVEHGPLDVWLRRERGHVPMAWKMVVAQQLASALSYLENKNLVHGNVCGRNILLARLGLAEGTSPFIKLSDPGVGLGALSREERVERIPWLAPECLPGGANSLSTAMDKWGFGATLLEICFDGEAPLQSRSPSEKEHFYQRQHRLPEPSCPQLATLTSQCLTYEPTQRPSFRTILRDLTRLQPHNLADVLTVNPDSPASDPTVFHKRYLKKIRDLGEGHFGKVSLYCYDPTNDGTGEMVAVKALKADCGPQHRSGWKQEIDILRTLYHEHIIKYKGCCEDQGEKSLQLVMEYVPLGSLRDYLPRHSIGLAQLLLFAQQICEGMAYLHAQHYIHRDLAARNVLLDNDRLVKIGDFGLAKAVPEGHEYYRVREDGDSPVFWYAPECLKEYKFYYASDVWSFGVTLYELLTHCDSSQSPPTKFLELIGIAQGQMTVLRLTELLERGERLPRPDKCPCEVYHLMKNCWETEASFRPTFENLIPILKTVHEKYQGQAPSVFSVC

[10] = target: CDK4/Cyclin D3 (Homo sapiens) (UniProt P11802+P30281); assay: (§1) Selectivity interaction (KinomeScan (DiscoverX)) EUB0000045b CDK4; format: protein-complex assay
[11] = target: Cyclin-dependent kinase 4/cyclin D1 (Homo sapiens) (UniProt P11802+P24385); assay: as §1; format: protein-complex assay
[12] = target: Protein kinase C beta type (Homo sapiens, UniProt P05771); assay: Selectivity interaction (ActivX KiNativ screen (ex vivo kinase selectivity in human PBMCs)) EUB0001619a PRKCB; format: cell-based; settings: PBMC, at 1 µM

## CC(C)(O)[C@H](F)CN1Cc2cc(NC(=O)c3cnn4cccnc34)c(N3CCOCC3)cc2C1=O
[1]
  % of inhibition: 90.8%

## COc1cc(N(C)c2ccnc3ccc(C(F)(F)F)cc23)cc(OC)c1OC
[2]
  % binding: 0%

## CN(C)CCOc1ccc(-c2nc(-c3ccncc3)c(-c3ccc4c(c3)CC/C4=N\O)[nH]2)cc1
[3]
  % of control: 4%

## C=CC(=O)Nc1cccc(C(=O)Nc2ccc(Nc3cc(-c4[nH]c(SC)nc4C)ccn3)cc2)c1
[4]; at 1 µM
  % of control: 86%
[4]; at 5 µM
  % of control: 61%

## Nc1cnc(N2CCc3cc(S(=O)(=O)Nc4c(F)cc(Cl)cc4F)cc(N4CCCC4=O)c32)nc1 [TP-020n]
[5]
  % of control: 92%

## CC[C@@H]1[C@H](F)C(=O)N[C@@H]1COc1nccc2cc(C(N)=O)c(OC)cc12 [ZIMLOVISERTIB]
[6]; at 0.01 µM
  % of inhibition: -5.5%
[6]; at 0.04 µM
  % of inhibition: -23.7%
[6]; at 0.2 µM
  % of inhibition: -87.3%
[6]; at 1 µM
  % of inhibition: -76.3%
[6]; at 5 µM
  % of inhibition: -29.4%
[7]
  % of inhibition: -8.1%

## Cc1cc(F)c(C(=O)Nc2cccc(-c3nncn3C(C)C)n2)cc1-n1cnc(C2CC2)c1
[8]
  % of control: 92%

## C=CC(=O)Nc1cc(-n2c(=O)ccc3cnc4ccc(-c5ccc(NS(C)(=O)=O)cc5)cc4c32)ccc1C
[9]
  % of control: 100%
[10]; at 1 µM
  % of control: 100%
[10]; at 10 µM
  % of control: 93%
[11]; at 1 µM
  % of control: 100%
[11]; at 10 µM
  % of control: 100%

## N#Cc1cccc(-c2c[nH]c3ncnc(N4CCOCC4)c23)c1
[12]
  % of inhibition: 57%

— ChEMBL document CHEMBL5465560, “Selectivity Literature for EUbOPEN Chemogenomic Library” (2024)
